How the values were obtained:
[1] = test system: Mycolicibacterium smegmatis; assay: Antimycobacterial activity against Mycobacterium smegmatis MC2 155 assessed as inhibition of respiratory ATP synthesis by measuring ATP level at 2 times MIC measured after 1 hr by luciferase reporter gene assay (reference value: 90.6%); assay type: functional, str. MC2 155; design: scale not given: the % may be the effect or the level left
[2] = Cytotoxicity against human corneal fibroblasts assessed as reduction in ATP level measured after 4 hrs by Celltiter-Glo luminescent assay; assay type: toxicity, Corneal fibroblast
[3] = Cytotoxicity against human corneal fibroblasts assessed as increase in LDH level measured after 4 hrs by Cytotox-one […] assay; assay type: toxicity, Corneal fibroblast
[4] = Drug metabolism in rat liver microsomes at 1 uM preincubated for 5 mins followed by NADPH addition measured up to 30 mins by LC-MS/MS method; assay type: ADME; settings: read-out: Drug metabolism
[5] = Half life in rat liver microsomes at 1 uM preincubated for 5 mins followed by NADPH addition measured by LC-MS/MS method; assay type: ADME
CYP3A4 = CYP3A4 (Homo sapiens, UniProt P08684); assay: Inhibition of CYP3A4 in human liver microsomes at 10 uM using midazolam as substrate preincubated for 5 min followed by NADPH addition measured after 10 mins by LC-MS/MS method relative to control; assay type: ADME; settings: probe midazolam
CYP2C19 = CYP2C19 (Homo sapiens, UniProt P33261); assay: Inhibition of CYP2C19 in human liver microsomes at 10 uM using omeprazole as substrate preincubated for 5 min followed by NADPH addition measured after 10 mins by LC-MS/MS method relative to control; assay type: ADME; settings: probe omeprazole
[6] = test system: Mycolicibacterium smegmatis; assay: Antimycobacterial activity against Mycobacterium smegmatis MC2 155 assessed as ATP leakage by measuring extracellular ATP at 4 times MIC measured immediatey after addition of compounds by luciferase reporter gene assay; assay type: functional, str. MC2 155
[7] = test system: Mycolicibacterium smegmatis; assay: Antimycobacterial activity against Mycobacterium smegmatis MC2 155 assessed as ATP leakage by measuring intracellular ATP at 2 times MIC measured immediatey after addition of compounds by luciferase reporter gene assay; assay type: functional, str. MC2 155
[8] = test system: Mycolicibacterium smegmatis; assay: Antimycobacterial activity against Mycobacterium smegmatis MC2 155 assessed as ATP leakage by measuring extracellular ATP at 0.5 times MIC measured at 1 hr of post dose by luciferase reporter gene assay; assay type: functional, str. MC2 155
[9] = test system: Mycolicibacterium smegmatis; assay: Antimycobacterial activity against Mycobacterium smegmatis MC2 155 assessed as ATP leakage by measuring extracellular ATP at MIC measured at 1 hr of post dose by luciferase reporter gene assay; assay type: functional, str. MC2 155
[10] = test system: Mycolicibacterium smegmatis; assay: Antimycobacterial activity against Mycobacterium smegmatis MC2 155 assessed as ATP leakage by measuring intracellular ATP at 0.5 times MIC measured at 1 hr of post dose by luciferase reporter gene assay; assay type: functional, str. MC2 155
[11] = test system: Mycolicibacterium smegmatis; assay: Antimycobacterial activity against Mycobacterium smegmatis MC2 155 assessed as ATP leakage by measuring intracellular ATP at MIC measured at 1 hr of post dose by luciferase reporter gene assay; assay type: functional, str. MC2 155
[12] = test system: Mycolicibacterium smegmatis; assay: Antimycobacterial activity against Mycobacterium smegmatis MC2 155 assessed as ATP leakage by measuring intracellular ATP at 4 times MIC measured at 1 hr of post dose by luciferase reporter gene assay; assay type: functional, str. MC2 155
[13] = test system: Mycolicibacterium smegmatis; assay: Antimycobacterial activity against Mycobacterium smegmatis MC2 155 assessed as ATP leakage by measuring extracellular ATP at 0.5 times MIC measured at 3 hrs post dose by luciferase reporter gene assay; assay type: functional, str. MC2 155
[14] = test system: Mycolicibacterium smegmatis; assay: Antimycobacterial activity against Mycobacterium smegmatis MC2 155 assessed as ATP leakage by measuring extracellular ATP at 2 times MIC measured at 3 hrs post dose by luciferase reporter gene assay; assay type: functional, str. MC2 155
[15] = test system: Mycolicibacterium smegmatis; assay: Antimycobacterial activity against Mycobacterium smegmatis MC2 155 assessed as ATP leakage by measuring intracellular ATP at 0.5 times MIC measured at 3 hrs post dose by luciferase reporter gene assay; assay type: functional, str. MC2 155
[16] = test system: Mycolicibacterium smegmatis; assay: Antimycobacterial activity against Mycobacterium smegmatis MC2 155 assessed as ATP leakage by measuring intracellular ATP at MIC measured at 3 hrs post dose by luciferase reporter gene assay; assay type: functional, str. MC2 155
[17] = test system: Mycolicibacterium smegmatis; assay: Antimycobacterial activity against Mycobacterium smegmatis MC2 155 assessed as ATP leakage by measuring intracellular ATP at 4 times MIC measured at 3 hrs post dose by luciferase reporter gene assay; assay type: functional, str. MC2 155
[18] = test system: Mycolicibacterium smegmatis; assay: Antimycobacterial activity against Mycobacterium smegmatis MC2 155 assessed as ATP leakage by measuring extracellular ATP at MIC measured at 6 hrs post dose by luciferase reporter gene assay; assay type: functional, str. MC2 155
[19] = test system: Mycolicibacterium smegmatis; assay: Antimycobacterial activity against Mycobacterium smegmatis MC2 155 assessed as ATP leakage by measuring extracellular ATP at 2 times MIC measured at 6 hrs post dose by luciferase reporter gene assay; assay type: functional, str. MC2 155
[20] = test system: Mycolicibacterium smegmatis; assay: Antimycobacterial activity against Mycobacterium smegmatis MC2 155 assessed as ATP leakage by measuring extracellular ATP at 4 times MIC measured at 6 hrs post dose by luciferase reporter gene assay; assay type: functional, str. MC2 155
[21] = test system: Mycolicibacterium smegmatis; assay: Antimycobacterial activity against Mycobacterium smegmatis MC2 155 assessed as ATP leakage by measuring intracellular ATP at 0.5 times MIC measured at 6 hrs post dose by luciferase reporter gene assay; assay type: functional, str. MC2 155
[22] = test system: Mycolicibacterium smegmatis; assay: Antimycobacterial activity against Mycobacterium smegmatis MC2 155 assessed as ATP leakage by measuring intracellular ATP at 2 times MIC measured at 6 hrs post dose by luciferase reporter gene assay; assay type: functional, str. MC2 155
[23] = test system: Mycolicibacterium smegmatis; assay: Antimycobacterial activity against Mycobacterium smegmatis MC2 155 assessed as ATP leakage by measuring intracellular ATP at 4 times MIC measured at 6 hrs post dose by luciferase reporter gene assay; assay type: functional, str. MC2 155
[24] = test system: Mycolicibacterium smegmatis; assay: Antimycobacterial activity against Mycobacterium smegmatis MC2 155 assessed as ATP leakage by measuring extracellular ATP at 4 times MIC measured at 9 hrs post dose by luciferase reporter gene assay; assay type: functional, str. MC2 155
[25] = test system: Mycolicibacterium smegmatis; assay: Antimycobacterial activity against Mycobacterium smegmatis MC2 155 assessed as ATP leakage by measuring intracellular ATP at MIC measured at 9 hrs post dose by luciferase reporter gene assay; assay type: functional, str. MC2 155
[26] = test system: Mycolicibacterium smegmatis; assay: Antimycobacterial activity against Mycobacterium smegmatis MC2 155 assessed as ATP leakage by measuring extracellular ATP at MIC measured at 24 hrs post dose by luciferase reporter gene assay; assay type: functional, str. MC2 155
[27] = test system: Mycolicibacterium smegmatis; assay: Antimycobacterial activity against Mycobacterium smegmatis MC2 155 assessed as ATP leakage by measuring extracellular ATP at 4 times MIC measured at 24 hrs post dose by luciferase reporter gene assay; assay type: functional, str. MC2 155
[28] = test system: Mycolicibacterium smegmatis; assay: Antimycobacterial activity against Mycobacterium smegmatis MC2 155 assessed as ATP leakage by measuring intracellular ATP at 0.5 times MIC measured at 24 hrs post dose by luciferase reporter gene assay; assay type: functional, str. MC2 155
[29] = test system: Mycolicibacterium smegmatis; assay: Antimycobacterial activity against Mycobacterium smegmatis MC2 155 assessed as ATP leakage by measuring intracellular ATP at 4 times MIC measured at 24 hrs post dose by luciferase reporter gene assay; assay type: functional, str. MC2 155
[30] = test system: Mycolicibacterium smegmatis; assay: Antimycobacterial activity against Mycobacterium smegmatis MC2 155 assessed as inhibition of respiratory ATP synthesis by measuring ATP level at 4 times MIC measured after 3 hrs by luciferase reporter gene assay (reference value: 158.3%); assay type: functional, str. MC2 155; design: scale not given: the % may be the effect or the level left
[31] = test system: Mycolicibacterium smegmatis; assay: Antimycobacterial activity against Mycobacterium smegmatis MC2 155 assessed as inhibition of respiratory ATP synthesis by measuring ATP level at 2 times MIC measured after 6 hrs by luciferase reporter gene assay (reference value: 152%); assay type: functional, str. MC2 155; design: scale not given: the % may be the effect or the level left
[32] = test system: Mycolicibacterium smegmatis; assay: Antimycobacterial activity against Mycobacterium smegmatis MC2 155 assessed as inhibition of respiratory ATP synthesis by measuring ATP level at 2 times MIC measured after 6 hrs by luciferase reporter gene assay (reference value: 212.7%); assay type: functional, str. MC2 155; design: scale not given: the % may be the effect or the level left

CYP3A4, sequence (P08684 whole entry): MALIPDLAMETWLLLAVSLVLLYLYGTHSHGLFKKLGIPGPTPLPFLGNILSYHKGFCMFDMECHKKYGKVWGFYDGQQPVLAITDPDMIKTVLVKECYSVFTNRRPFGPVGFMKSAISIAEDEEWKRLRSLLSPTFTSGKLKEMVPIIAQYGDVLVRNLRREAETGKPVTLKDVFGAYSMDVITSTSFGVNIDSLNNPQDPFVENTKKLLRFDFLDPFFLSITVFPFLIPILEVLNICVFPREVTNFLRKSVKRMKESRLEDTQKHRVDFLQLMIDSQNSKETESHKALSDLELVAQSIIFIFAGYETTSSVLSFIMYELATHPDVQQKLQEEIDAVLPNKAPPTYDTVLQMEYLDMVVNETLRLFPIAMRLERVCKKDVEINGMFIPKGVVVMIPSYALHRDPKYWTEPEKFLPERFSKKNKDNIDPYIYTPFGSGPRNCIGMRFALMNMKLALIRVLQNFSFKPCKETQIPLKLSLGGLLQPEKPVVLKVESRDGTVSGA
CYP2C19, sequence (P33261 whole entry): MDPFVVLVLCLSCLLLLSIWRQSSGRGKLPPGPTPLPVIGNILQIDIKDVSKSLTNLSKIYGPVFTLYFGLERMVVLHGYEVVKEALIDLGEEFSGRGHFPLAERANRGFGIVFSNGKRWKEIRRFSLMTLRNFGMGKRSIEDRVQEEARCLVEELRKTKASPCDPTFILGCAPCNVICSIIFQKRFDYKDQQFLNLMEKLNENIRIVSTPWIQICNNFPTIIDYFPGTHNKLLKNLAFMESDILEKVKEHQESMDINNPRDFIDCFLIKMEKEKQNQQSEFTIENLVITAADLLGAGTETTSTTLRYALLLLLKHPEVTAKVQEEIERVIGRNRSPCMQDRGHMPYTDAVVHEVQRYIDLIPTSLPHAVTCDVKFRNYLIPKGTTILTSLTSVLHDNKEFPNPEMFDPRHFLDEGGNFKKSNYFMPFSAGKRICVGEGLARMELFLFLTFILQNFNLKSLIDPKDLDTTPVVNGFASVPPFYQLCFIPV

Row | Compound | Activity [1] | CC50 at 4 h [2] | CC50 at 4 h [3] | metabolised at 0.5 h, 1 µM [4] | half-life at 1 µM [5] | inhibition at 10 min, 10 µM (CYP3A4) | inhibition at 10 min, 10 µM (CYP2C19) | Activity [6] | Activity [7] | Activity [8] | Activity [9] | Activity [10] | Activity [11] | Activity [12] | Activity [13] | Activity [14] | Activity [15] | Activity [16] | Activity [17] | Activity [18] | other results
1 | CCCN(CCC)CCCCOc1cc2oc3cc(OCCCCN(CCC)CCC)c(OC)c(CC=C(C)C)c3c(=O)c2c(O)c1CC=C(C)C | 5.9% | 108 µM | > 150 µM | 10% | > 30 min | 0% | 19.2% | 4.3% | 96% | 24.7% | 88.5% | 75.3% | 11.5% | 5.7% | 39% | 97.4% | 61% | 8.2% | 8.9% | 88% | Activity [19]: 96.1%; Activity [20]: 83.5%; Activity [21]: 69.4%; Activity [22]: 3.9%; Activity [23]: 16.5%; Activity [24]: 84.3%; Activity [25]: 10.6%; Activity [26]: 88.1%; Activity [27]: 88%; Activity [28]: 46.4%; Activity [29]: 12%; Activity [30]: 4.6%; Activity [31]: 3.9%; Activity [32]: 3.9%
2 | CCN(CC)CCCCOc1cc2oc3cc(OCCCCN(CC)CC)c(OC)c(CC=C(C)C)c3c(=O)c2c(O)c1CC=C(C)C | 5.8% | 19.7 µM | > 150 µM | 12.1% | > 30 min | 12% | 3% | 1.3% | 98.7% | 6.8% | 42.1% | 93.2% | 57.9% | 2.6% | 16.4% | 97.3% | 83.6% | 12% | 2.5% | 79.9% | Activity [19]: 96.8%; Activity [20]: 96.7%; Activity [21]: 87.8%; Activity [22]: 3.2%; Activity [23]: 3.3%; Activity [24]: 97.3%; Activity [25]: 17.6%; Activity [26]: 44.4%; Activity [27]: 97.3%; Activity [28]: 33.3%; Activity [29]: 2.7%; Activity [30]: 2.6%; Activity [31]: 26.8%; Activity [32]: 2.3%
3 | COc1c(OCCCCN2CCOCC2)cc2oc3cc(OCCCCN4CCOCC4)c(CC=C(C)C)c(O)c3c(=O)c2c1CC=C(C)C | 50.2% | > 150 µM | > 150 µM | 0% | > 30 min | 32% | 17% | 3.8% | 97% | 2.2% | 6.5% | 97.8% | 93.5% | 57.3% | 5.9% | 63.4% | 94.1% | 55.3% | 44.7% | 36.3% | Activity [19]: 76.7%; Activity [20]: 91.3%; Activity [21]: 86.8%; Activity [22]: 23.3%; Activity [23]: 6.7%; Activity [24]: 92.1%; Activity [25]: 41.4%; Activity [26]: 88.7%; Activity [27]: 95.5%; Activity [28]: 52.5%; Activity [29]: 4.5%; Activity [30]: 26.8%; Activity [31]: 18.9%; Activity [32]: 11%
